Assay results reported in ChEMBL document CHEMBL1201862, “PubChem BioAssay data set” (2004).
“And” between values parts separate entries of the source, which are not always exact repeats. Identical values can stand only once.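 The compound was tested at five concentrations on cells cultured in 96-well plates, with a 48-hour exposure period. GI50 marks 50% less growth.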 The source made the active and inactive calls. No stated cut-off is given here; in the data, active = GI50 up to about 1.1 µM and inactive = higher.

Key:
Assay in all cases: DTP human tumour cell line panel, 48 h
[1] = test system: 786-0
[2] = test system: A498
[3] = test system: BT-549
[4] = test system: CCRF-CEM
[5] = test system: COLO 205
[6] = test system: DLD-1
[7] = test system: DMS-273
[8] = test system: DU-145
[9] = test system: EKVX
[10] = test system: HL-60
[11] = test system: HOP-18
[12] = test system: HOP-92
[13] = test system: Hs-578T
[14] = test system: IGROV-1
[15] = test system: KM-20L2
[16] = test system: KM12
[17] = test system: LOX IMVI
[18] = test system: MDA-MB-231
[19] = test system: MDA-MB-435
[20] = test system: MOLT-4
[21] = test system: Malme-3M
[22] = test system: NCI-H226
[23] = test system: OVCAR-3
[24] = test system: OVCAR-5
[25] = test system: PC-3
[26] = test system: RXF 393
[27] = test system: SF-539
[28] = test system: SK-MEL-2
[29] = test system: SK-OV-3
[30] = test system: SNB-78
[31] = test system: SR
[32] = test system: T47D
[33] = test system: TK-10
[34] = test system: UACC-257
[35] = test system: XF498
[36] = test system: A549
[37] = test system: ACHN
[38] = test system: CAKI-1
[39] = test system: DMS-114
[40] = test system: HCC 2998
[41] = test system: HCT-116
[42] = test system: HCT-15
[43] = test system: HOP-62
[44] = test system: HT-29
[45] = test system: K562
[46] = test system: LXFL 529
[47] = test system: M14
[48] = test system: M19-MEL
[49] = test system: NCI-H23
[50] = test system: NCI-H460
[51] = test system: NCI-H522
[52] = test system: OVCAR-4
[53] = test system: OVCAR-8
[54] = test system: RPMI-8226
[55] = test system: SF-268
[56] = test system: SF-295
[57] = test system: SK-MEL-28
[58] = test system: SK-MEL-5
[59] = test system: SN12C
[60] = test system: SNB-19
[61] = test system: SNB-75
[62] = test system: SW-620
[63] = test system: U-251
[64] = test system: UACC-62
[65] = test system: UO-31
[66] = test system: NCI/ADR-RES
[67] = test system: MCF7

N#Cc1cn(C2OC(CO)C(O)C2O)c2ncnc(N)c12 (centres undefined)
GI50 [1]: 0.0241 µM (active)
GI50 [2]: 57.4 nM (active) and 114 nM (active)
GI50 [3]: 0.0577 µM (active)
GI50 [4]: 16.1 nM (active) and 18 nM (active)
GI50 [5]: 14.6 nM (active) and < 16.4 nM (active)
GI50 [6]: 0.045 µM (active)
GI50 [7]: 0.0409 µM (active)
GI50 [8]: 0.0393 µM (active)
GI50 [9]: 60.3 nM (active) and 94.8 nM (active)
GI50 [10]: < 10 nM (active) and < 13.8 nM (active)
GI50 [11]: 0.109 µM (active)
GI50 [12]: 46.2 nM (active) and 76.6 nM (active)
GI50 [13]: 0.0302 µM (active)
GI50 [14]: 47.1 nM (active) and 23.8 nM (active)
GI50 [15]: 0.0476 µM (active)
GI50 [16]: 24.1 nM (active) and 44.4 nM (active)
GI50 [17]: 14.7 nM (active) and 24.9 nM (active)
GI50 [18]: 0.0158 µM (active)
GI50 [19]: < 0.0169 µM (active)
GI50 [20]: 23.9 nM (active) and 25.3 nM (active)
GI50 [21]: 39.9 nM (active) and 47.5 nM (active)
GI50 [22]: 66.4 nM (active) and 66.2 nM (active)
GI50 [23]: 25.4 nM (active) and 45 nM (active)
GI50 [24]: 112 nM (active) and 81.7 nM (active)
GI50 [25]: 0.015 µM (active)
GI50 [26]: 23.2 nM (active) and 21.7 nM (active)
GI50 [27]: 45.4 nM (active) and 76.4 nM (active)
GI50 [28]: 18.2 nM (active) and 29.6 nM (active)
GI50 [29]: 26 nM (active) and 42.9 nM (active)
GI50 [30]: 0.191 µM (active)
GI50 [31]: < 0.01 µM (active)
GI50 [32]: 0.0199 µM (active)
GI50 [33]: 0.014 µM (active)
GI50 [34]: 62.2 nM (active) and 81.8 nM (active)
GI50 [35]: 0.00414 µM (active)

CCCCCCC1CCC2CCCC(C)N12 (centres undefined)
GI50 [1]: 30.1 µM (inactive)
GI50 [36]: 77.1 µM (inactive)
GI50 [37]: 68.1 µM (inactive)
GI50 [38]: > 100 µM (inactive)
GI50 [4]: 19 µM (inactive)
GI50 [5]: 16 µM (inactive)
GI50 [39]: 37 µM (inactive)
GI50 [7]: 27.4 µM (inactive)
GI50 [9]: > 100 µM (inactive)
GI50 [40]: 22.6 µM (inactive)
GI50 [41]: 51.1 µM (inactive)
GI50 [42]: 32.8 µM
GI50 [10]: 17.8 µM (inactive)
GI50 [11]: 29.2 µM (inactive)
GI50 [43]: > 100 µM (inactive)
GI50 [12]: 25.8 µM (inactive)
GI50 [44]: > 10 µM (inactive)
GI50 [45]: 13.8 µM (inactive)
GI50 [15]: 25.2 µM (inactive)
GI50 [16]: 30.6 µM (inactive)
GI50 [46]: > 10 µM (inactive)
GI50 [47]: 25.3 µM (inactive)
GI50 [48]: 27.7 µM (inactive)
GI50 [20]: 18.3 µM (inactive)
GI50 [21]: > 10 µM (inactive)
GI50 [22]: > 100 µM (inactive)
GI50 [49]: 34.4 µM (inactive)
GI50 [50]: 23.7 µM (inactive)
GI50 [51]: 22.9 µM (inactive)
GI50 [23]: > 100 µM (inactive)
GI50 [52]: 46.2 µM (inactive)
GI50 [53]: 45.6 µM (inactive)
GI50 [54]: 22.9 µM (inactive)
GI50 [55]: 43.4 µM (inactive)
GI50 [56]: 43.4 µM (inactive)
GI50 [27]: 76 µM (inactive)
GI50 [57]: 53.6 µM (inactive)
GI50 [28]: 28.2 µM (inactive)
GI50 [58]: 49.8 µM (inactive)
GI50 [59]: 95.9 µM (inactive)
GI50 [60]: > 100 µM (inactive)
GI50 [61]: 39.8 µM (inactive)
GI50 [31]: 23.2 µM (inactive)
GI50 [62]: 14.8 µM (inactive)
GI50 [33]: 39.2 µM (inactive)
GI50 [63]: 10.5 µM (inactive)
GI50 [34]: 37.9 µM (inactive)
GI50 [64]: > 100 µM (inactive)
GI50 [65]: 19.7 µM (inactive)
GI50 [35]: 19.4 µM (inactive)

CC1CC(C)C(C(O)CC2CC(=O)N(c3ccccc3)C(=O)C2)C(O)C1 (centres undefined)
GI50 [1]: > 100 µM (inactive)
GI50 [2]: > 100 µM (inactive)
GI50 [36]: > 100 µM (inactive)
GI50 [37]: > 100 µM (inactive)
GI50 [38]: > 100 µM (inactive)
GI50 [4]: > 100 µM (inactive)
GI50 [5]: > 100 µM (inactive)
GI50 [6]: > 100 µM (inactive)
GI50 [39]: > 100 µM (inactive)
GI50 [7]: > 100 µM (inactive)
GI50 [9]: > 100 µM (inactive)
GI50 [40]: > 100 µM (inactive)
GI50 [41]: > 100 µM (inactive)
GI50 [10]: > 100 µM (inactive)
GI50 [11]: > 100 µM (inactive)
GI50 [43]: > 100 µM (inactive)
GI50 [12]: > 100 µM (inactive)
GI50 [44]: > 100 µM (inactive)
GI50 [14]: > 100 µM (inactive)
GI50 [45]: > 100 µM (inactive)
GI50 [15]: > 100 µM (inactive)
GI50 [16]: > 100 µM (inactive)
GI50 [17]: > 100000 nM (inactive)
GI50 [46]: > 100 µM (inactive)
GI50 [47]: > 100 µM (inactive)
GI50 [48]: > 100 µM (inactive)
GI50 [20]: > 100 µM (inactive)
GI50 [21]: > 100 µM (inactive)
GI50 [22]: > 100 µM (inactive)
GI50 [49]: > 100 µM (inactive)
GI50 [50]: > 100 µM (inactive)
GI50 [51]: > 100 µM (inactive)
GI50 [23]: > 100 µM (inactive)
GI50 [52]: > 100 µM (inactive)
GI50 [24]: > 100 µM (inactive)
GI50 [53]: > 100 µM (inactive)
GI50 [54]: > 100 µM (inactive)
GI50 [26]: > 100 µM (inactive)
GI50 [55]: > 100 µM (inactive)
GI50 [56]: > 100 µM (inactive)
GI50 [27]: > 100 µM (inactive)
GI50 [57]: > 100 µM (inactive)
GI50 [29]: > 100 µM (inactive)
GI50 [59]: > 100 µM (inactive)
GI50 [60]: > 100 µM (inactive)
GI50 [61]: > 100 µM (inactive)
GI50 [30]: > 100 µM (inactive)
GI50 [31]: > 100 µM (inactive)
GI50 [62]: > 100 µM (inactive)
GI50 [33]: > 100 µM (inactive)
GI50 [63]: > 100 µM (inactive)
GI50 [34]: > 100 µM (inactive)
GI50 [64]: > 100 µM (inactive)
GI50 [65]: > 100 µM (inactive)

NC(CN(O)N=O)C(=O)O (centres undefined)
GI50 [36]: 0.202 µM (active)
GI50 [37]: 1.85 µM (inactive)
GI50 [6]: 1.04 µM (active)
GI50 [39]: 0.309 µM (active)
GI50 [7]: 0.817 µM (active)
GI50 [8]: 135 µM (inactive)
GI50 [10]: 9.4 µM (inactive)
GI50 [11]: 331 µM (inactive)
GI50 [44]: 9.23 µM (inactive)
GI50 [15]: 19 µM (inactive)
GI50 [16]: 0.472 µM (active)
GI50 [17]: 267 nM (active)
GI50 [48]: 14.1 µM (inactive)
GI50 [18]: 55.7 µM (inactive)
GI50 [20]: 20.1 µM (inactive)
GI50 [21]: 54.5 µM (inactive)
GI50 [66]: 17.1 µM (inactive)
GI50 [24]: 5.22 µM (inactive)
GI50 [53]: 12.2 µM (inactive)
GI50 [56]: 5.01 µM (inactive)
GI50 [27]: 8.57 µM (inactive)
GI50 [28]: 95.9 µM (inactive)
GI50 [30]: 21.8 µM (inactive)
GI50 [32]: 157 µM (inactive)
GI50 [35]: 5.71 µM (inactive)

CC1=C(C)C(=O)O[C@@H]([C@](C)(O)[C@]2(O)CC[C@@]3(O)[C@@H]4C[C@H]5O[C@]56[C@@H](O)C=CC(=O)[C@]6(C)[C@H]4CC[C@]23C)C1
GI50 [36]: 4.01 µM (inactive)
GI50 [38]: 0.025 µM (active)
GI50 [4]: 0.0851 µM (active)
GI50 [40]: 1.71 µM (inactive)
GI50 [41]: 0.182 µM (active)
GI50 [42]: 0.137 µM
GI50 [11]: 0.0454 µM (active)
GI50 [43]: 1.11 µM (active)
GI50 [12]: 0.0373 µM (active)
GI50 [44]: 0.174 µM (active)
GI50 [14]: 1.01 µM (active)
GI50 [17]: 133 nM (active)
GI50 [67]: 0.186 µM (active)
GI50 [21]: 0.33 µM (active)
GI50 [22]: 11 µM (inactive)
GI50 [50]: 1.6 µM (inactive)
GI50 [54]: 0.0959 µM (active)
GI50 [56]: 2.99 µM (inactive)
GI50 [27]: 0.774 µM (active)
GI50 [28]: 0.451 µM (active)
GI50 [58]: 0.414 µM (active)
GI50 [29]: 6.4 µM (inactive)
GI50 [59]: 1.04 µM (active)
GI50 [60]: 2.17 µM (inactive)
GI50 [61]: 0.0468 µM (active)
GI50 [30]: 0.499 µM (active)
GI50 [63]: 1.88 µM (inactive)
GI50 [34]: 0.308 µM (active)
GI50 [65]: 0.587 µM (active)
GI50 [35]: 0.0912 µM (active)
